In ChEMBL document CHEMBL5244273, “Tuberculosis: An Overview of the Immunogenic Response, Disease Progression, and Medicinal Chemistry Efforts in the Last Decade toward the Development of Potential Drugs for Extensively Drug-Resistant Tuberculosis Strains” (J Med Chem, 2021):
Converted amounts (≈) assume the structure as drawn.

Tests used:
[1] = tested on: Mycobacterium tuberculosis; experiment: Antimycobacterial activity against Mycobacterium tuberculosis H37Rv ATCC 27294 by broth dilution method; format: functional
J774 = experiment: Cytotoxicity against mouse J774 cells incubated for 24 hrs by MTT assay; format: toxicity, cell-based; conditions: j774, 24 h
[2] = tested on: Mycobacterium tuberculosis; experiment: Antimycobacterial activity against non replicating Mycobacterium tuberculosis by broth dilution method; format: functional
[3] = tested on: Mycobacterium tuberculosis; experiment: Antimycobacterial activity against Mycobacterium tuberculosis H37Rv incubated for 2 weeks; format: functional; conditions: 336 h
[4] = tested on: Mycobacterium tuberculosis; experiment: Antimycobacterial activity against Mycobacterium tuberculosis H37Rv incubated for 3 weeks; format: functional; conditions: 504 h
[5] = tested on: Mycobacterium tuberculosis; experiment: Antimycobacterial activity against Mycobacterium tuberculosis H37Rv incubated for 5 weeks; format: functional; conditions: 840 h
[6] = tested on: Mycobacterium tuberculosis; experiment: Antimycobacterial activity against Mycobacterium tuberculosis H37Rv incubated for 4 weeks; format: functional; conditions: 672 h
[7] = Selectivity index, ratio of GI50 for cytotoxicity against HUVEC cells to MIC for antitubercular activity against dormant stage of Mycobacterium tuberculosis H37Ra; format: toxicity, cell-based; conditions: human, read-out: Selectivity Index
[8] = tested on: Mycobacterium tuberculosis; experiment: Antitubercular activity against dormant stage of Mycobacterium tuberculosis H37Ra; format: functional
[9] = Selectivity index, ratio of GI50 for cytotoxicity against HUVEC cells to MIC for antitubercular activity against active stage of Mycobacterium tuberculosis H37Ra; format: toxicity, cell-based; conditions: human, read-out: Selectivity Index
HeLa = experiment: Cytotoxicity against human HeLa cells assessed as cell growth inhibition; format: functional
[10] = Cytotoxicity against HUVEC cells assessed as cell growth inhibition; format: toxicity, cell-based; conditions: human
[11] = Selectivity index, ratio of GI50 for cytotoxicity against human MCF7 cells to MIC for antitubercular activity against active stage of Mycobacterium tuberculosis H37Ra; format: toxicity, cell-based; conditions: read-out: Selectivity Index
[12] = Selectivity index, ratio of GI50 for cytotoxicity against human HeLa cells to MIC for antitubercular activity against dormant stage of Mycobacterium tuberculosis H37Ra; format: toxicity, cell-based; conditions: read-out: Selectivity Index
[13] = tested on: Mycobacterium tuberculosis; experiment: Antitubercular activity against active stage of Mycobacterium tuberculosis H37Ra; format: functional
[14] = Selectivity index, ratio of GI50 for cytotoxicity against human MCF7 cells to MIC for antitubercular activity against dormant stage of Mycobacterium tuberculosis H37Ra; format: toxicity, cell-based; conditions: read-out: Selectivity Index
[15] = Selectivity index, ratio of GI50 for cytotoxicity against human HeLa cells to MIC for antitubercular activity against active stage of Mycobacterium tuberculosis H37Ra; format: toxicity, cell-based; conditions: read-out: Selectivity Index
MCF7 = experiment: Cytotoxicity against human MCF7 cells assessed as cell growth inhibition; format: functional
[16] = tested on: Mycobacterium tuberculosis; experiment: Antitubercular activity against Mycobacterium tuberculosis H37Rv assessed as inhibition of bacterial growth by alamar blue assay; format: functional
[17] = tested on: Mycobacterium tuberculosis; experiment: Antimycobacterial activity against Mycobacterium tuberculosis H37Rv assessed as inhibition of bacterial growth incubated for 5 days by alamar blue assay; format: functional; conditions: 120 h, time 5 day
[18] = tested on: Mycobacterium tuberculosis; experiment: Antimycobacterial activity against Mycobacterium tuberculosis H37Rv; format: functional

| SMILES | MIC [1] [µg/mL] | Activity (J774) [µg/mL] | MIC [2] [µg/mL] | MIC [3] [µg/mL] | MIC [4] [µg/mL] | MIC [5] [µg/mL] | MIC [6] [µg/mL] | other results |
| --- | --- | --- | --- | --- | --- | --- | --- | --- |
| Cc1ccccc1OCc1cn(C[C@@]2(C)Cn3cc([N+](=O)[O-])nc3O2)nn1 | 0.5 (≈ 1.35 µM) | > 40 | 2 (≈ 5.4 µM) |  |  |  |  |  |
| C[C@]1(Cn2cc(COc3ccccc3F)nn2)Cn2cc([N+](=O)[O-])nc2O1 | 0.25 (≈ 0.668 µM) | > 40 | 0.5 (≈ 1.34 µM) |  |  |  |  |  |
| C[C@]1(Cn2cc(COc3ccc(Br)cc3)nn2)Cn2cc([N+](=O)[O-])nc2O1 | 0.12 (≈ 0.276 µM) | > 40 | 0.25 (≈ 0.574 µM) |  |  |  |  |  |
| C[C@]1(Cn2cc(COc3cccc(Cl)c3)nn2)Cn2cc([N+](=O)[O-])nc2O1 | 0.5 (≈ 1.28 µM) | > 40 | 1 (≈ 2.56 µM) |  |  |  |  |  |
| C[C@]1(Cn2cc(-c3ccc(Oc4ccccc4)cc3)nn2)Cn2cc([N+](=O)[O-])nc2O1 | 2 (≈ 4.78 µM) | > 40 | 2 (≈ 4.78 µM) |  |  |  |  |  |
| CC(C)c1ccc(OCc2cn(C[C@@]3(C)Cn4cc([N+](=O)[O-])nc4O3)nn2)cc1 | 0.5 (≈ 1.25 µM) | > 40 | 1 (≈ 2.51 µM) |  |  |  |  |  |
| CC(C)c1ccc(-c2cc3c(cc2F)c(=O)c(C(=O)O)cn3C(C)(C)C)cc1 |  |  |  | 2 (≈ 5.24 µM) | 4 (≈ 10.5 µM) | 4 (≈ 10.5 µM) | 4 (≈ 10.5 µM) |  |
| C[C@]1(Cn2cc(COc3ccc(OC(F)(F)F)cc3)nn2)Cn2cc([N+](=O)[O-])nc2O1 | 2 (≈ 4.54 µM) | > 40 | 4 (≈ 9.08 µM) |  |  |  |  |  |
| C[C@]1(Cn2cc(COc3ccc(C(F)(F)F)cc3)nn2)Cn2cc([N+](=O)[O-])nc2O1 | 1 (≈ 2.36 µM) | > 40 | 2 (≈ 4.71 µM) |  |  |  |  |  |
| CCCCCc1cn(C[C@@]2(C)Cn3cc([N+](=O)[O-])nc3O2)nn1 | 2 (≈ 6.24 µM) | > 40 | 4 (≈ 12.5 µM) |  |  |  |  |  |
| COC(=O)c1sccc1NC(=O)[C@@H]1CCCN1 |  |  |  |  |  |  |  | selectivity ratio [7]: 13.6; MIC [8]: 6.74 µg/mL (≈ 26.5 µM); selectivity ratio [9]: 5.75; GI50 (HeLa): 90.4 µg/mL (≈ 355 µM); GI50 [10]: 91.3 µg/mL (≈ 359 µM); selectivity ratio [11]: 10.3; selectivity ratio [12]: 13.4; MIC [13]: 15.9 µg/mL (≈ 62.4 µM); selectivity ratio [14]: 24.2; selectivity ratio [15]: 5.7; GI50 (MCF7): 163 µg/mL (≈ 641 µM) |
| CC(C)(C)n1cc(C(=O)O)c(=O)c2cc(F)c(-c3ccc(-c4ccccc4)cc3)cc21 |  |  |  | 4 (≈ 9.63 µM) | 4 (≈ 9.63 µM) | 4 (≈ 9.63 µM) | 4 (≈ 9.63 µM) |  |
| COC(=O)c1ccsc1NC(=O)[C@H]1CCCN1 |  |  |  |  |  |  |  | selectivity ratio [7]: 10.9; MIC [8]: 8.78 µg/mL (≈ 34.5 µM); selectivity ratio [9]: 8.84; GI50 (HeLa): 91.4 µg/mL (≈ 359 µM); GI50 [10]: 95.8 µg/mL (≈ 377 µM); selectivity ratio [11]: 16.5; selectivity ratio [12]: 10.4; MIC [13]: 10.8 µg/mL (≈ 42.6 µM); selectivity ratio [14]: 20.4; selectivity ratio [15]: 8.43; GI50 (MCF7): 179 µg/mL (≈ 704 µM) |
| COC(=O)c1ccsc1NC(=O)[C@@H]1CCCN1 |  |  |  |  |  |  |  | selectivity ratio [7]: > 74.6; MIC [8]: 3.35 µg/mL (≈ 13.2 µM); selectivity ratio [9]: > 20.9; GI50 (HeLa): > 250 µg/mL; GI50 [10]: > 250 µg/mL; selectivity ratio [11]: > 20.9; selectivity ratio [12]: > 74.6; MIC [13]: 12 µg/mL (≈ 47.1 µM); selectivity ratio [14]: > 74.6; selectivity ratio [15]: > 20.9; GI50 (MCF7): > 250 µg/mL |
| Cc1ccc(-c2cc3c(cc2F)c(=O)c(C(=O)O)cn3C(C)(C)C)cc1 |  |  |  | 1 (≈ 2.83 µM) | 1 (≈ 2.83 µM) | 1 (≈ 2.83 µM) | 1 (≈ 2.83 µM) |  |
| CC(C)(C)OC(=O)Nc1ccc(-c2cc3c(cc2F)c(=O)c(C(=O)O)cn3C(C)(C)C)cc1 |  |  |  | 4 (≈ 8.8 µM) | 4 (≈ 8.8 µM) | 4 (≈ 8.8 µM) | 4 (≈ 8.8 µM) |  |
| C[C@]1(Cn2cc(COc3ccccn3)nn2)Cn2cc([N+](=O)[O-])nc2O1 | 1 (≈ 2.8 µM) | > 40 | 2 (≈ 5.6 µM) |  |  |  |  |  |
| COc1cccc(-c2cc3c(cc2F)c(=O)c(C(=O)O)cn3C(C)(C)C)c1 |  |  |  | 1 (≈ 2.71 µM) | 1 (≈ 2.71 µM) | 1 (≈ 2.71 µM) | 1 (≈ 2.71 µM) |  |
| CCC(C)(C)n1cc(C(=O)O)c(=O)c2cc(F)c(-c3ccccc3)cc21 |  |  |  | 8 (≈ 22.6 µM) | 16 (≈ 45.3 µM) | 16 (≈ 45.3 µM) | 16 (≈ 45.3 µM) |  |
| COc1ccc(-c2cc3c(cc2F)c(=O)c(C(=O)O)cn3C2CC2)cn1 |  |  |  | 0.5 (≈ 1.41 µM) | 0.5 (≈ 1.41 µM) | 0.5 (≈ 1.41 µM) | 0.5 (≈ 1.41 µM) |  |
| O=C(O)c1cn(C2CC2)c2cc(N3CCNCC3)c(F)cc2c1=O [CIPROFLOXACIN] |  |  |  | 0.25 (≈ 0.754 µM) | 0.25 (≈ 0.754 µM) | 0.25 (≈ 0.754 µM) | 0.25 (≈ 0.754 µM) | MIC [16]: 3.12 µg/mL (≈ 9.43 µM); MIC [17]: 3.12 µg/mL (≈ 9.42 µM); MIC [18]: 3.12 µg/mL (≈ 9.42 µM) |
| CC(=O)O[C@H]1C(=O)[C@@]2(C)[C@H]([C@H](OC(=O)c3ccccc3)[C@]3(O)C[C@H](OC(=O)[C@H](O)[C@@H](NC(=O)c4ccccc4)c4ccccc4)C(C)=C1C3(C)C)[C@]1(OC(C)=O)CO[C@@H]1C[C@@H]2O [PACLITAXEL] |  |  |  |  |  |  |  | GI50 (HeLa): 0.0048 µg/mL (≈ 0.00562 µM); GI50 [10]: > 10 µg/mL; GI50 (MCF7): 0.0021 µg/mL (≈ 0.00246 µM) |
